Measured values as given in the supplement of paper PMC10307832.

Columns and labels:
Assay in all cases: relative viability (nuclei count vs DMSO), 5 days (fraction); higher = more cells survive
[1] = test system: HCC-366
In short: (§1)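 Nuclei were stained with Hoechst during a one-step fixation (final 0.05% Triton X-100, 1% formaldehyde, 1 ug/ml Hoechst) carried out 5 days after dosing, then counted on 4× images. The cells, lung cancer lines in 1536-well plates, had been dosed by pin tool the day after seeding with one drug alone or a fixed anchor-drug dose plus five library-drug doses (not always all listed) in √10 steps. Relative viability is the nuclei count in treated wells divided by that in vehicle wells, and each value is the median of duplicate plates.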

[2] = test system: LU99A
In short: as §1

[3] = test system: ABC-1
In short: as §1

[4] = test system: NCI-H2228
In short: as §1

[5] = test system: HCC-78
In short: as §1

[6] = test system: ChaGo-K-1
In short: as §1

[7] = test system: NCI-H1651
In short: as §1

[8] = test system: NCI-H2170
In short: as §1

[9] = test system: RERF-LC-KJ
In short: as §1

[10] = test system: LOU-NH91
In short: as §1

[11] = test system: NCI-H1755
In short: as §1

[12] = test system: LC-2-ad
In short: as §1

[13] = test system: PC-3 [JPC-3]
In short: as §1

[14] = test system: CAL-12T
In short: as §1

[15] = test system: NCI-H1734
In short: as §1

[16] = test system: NCI-H1944
In short: as §1

[17] = test system: NCI-H1395
In short: as §1

[18] = test system: NCI-H1793
In short: as §1

[19] = test system: NCI-H460
In short: as §1

[20] = test system: NCI-H2087
In short: as §1

[21] = test system: NCI-H2405
In short: as §1

[22] = test system: UMC-11
In short: as §1

[23] = test system: NCI-H3122
In short: as §1

SMILES: CC1(C)CCC(c2ccc(Cl)cc2)=C(CN2CCN(c3ccc(C(=O)NS(=O)(=O)c4ccc(N[C@H](CCN5CCOCC5)CSc5ccccc5)c(S(=O)(=O)C(F)(F)F)c4)cc3)CC2)C1 [Navitoclax] + Cc1cc(Nc2cc(N3CCN(C)CC3)nc(Sc3ccc(NC(=O)C4CC4)cc3)n2)n[nH]1 [Tozasertib] (partner 0.1 µM)
- relative viability ([1]; first compound 0.005 µM): 0.109
- relative viability ([1]; first compound 0.01581 µM): 0.11
- relative viability ([1]; first compound 0.1581 µM): 0.118
- relative viability ([1]; first compound 0.5 µM): 0.117
- relative viability ([2]; first compound 0.005 µM): 0.264
- relative viability ([2]; first compound 0.01581 µM): 0.355
- relative viability ([2]; first compound 0.05 µM): 0.244
- relative viability ([2]; first compound 0.1581 µM): 0.337
- relative viability ([2]; first compound 0.5 µM): 0.37
- relative viability ([3]; first compound 0.005 µM): 0.158
- relative viability ([3]; first compound 0.01581 µM): 0.19
- relative viability ([3]; first compound 0.05 µM): 0.144
- relative viability ([3]; first compound 0.1581 µM): 0.164
- relative viability ([3]; first compound 0.5 µM): 0.141
- relative viability ([4]; first compound 0.005 µM): 0.343
- relative viability ([4]; first compound 0.01581 µM): 0.296
- relative viability ([4]; first compound 0.1581 µM): 0.285
- relative viability ([4]; first compound 0.5 µM): 0.212
- relative viability ([5]; first compound 0.005 µM): 0.403
- relative viability ([5]; first compound 0.01581 µM): 0.594
- relative viability ([5]; first compound 0.1581 µM): 0.584
- relative viability ([5]; first compound 0.5 µM): 0.428
- relative viability ([6]; first compound 0.005 µM): 0.238
- relative viability ([6]; first compound 0.01581 µM): 0.225
- relative viability ([6]; first compound 0.05 µM): 0.184
- relative viability ([6]; first compound 0.1581 µM): 0.239
- relative viability ([6]; first compound 0.5 µM): 0.216
- relative viability ([7]; first compound 0.005 µM): 0.586
- relative viability ([7]; first compound 0.01581 µM): 0.686
- relative viability ([7]; first compound 0.05 µM): 0.493
- relative viability ([7]; first compound 0.1581 µM): 0.62
- relative viability ([7]; first compound 0.5 µM): 0.66
- relative viability ([8]; first compound 0.005 µM): 0.716
- relative viability ([8]; first compound 0.01581 µM): 0.71
- relative viability ([8]; first compound 0.05 µM): 0.689
- relative viability ([8]; first compound 0.1581 µM): 0.684
- relative viability ([8]; first compound 0.5 µM): 0.665
- relative viability ([9]; first compound 0.005 µM): 0.507
- relative viability ([9]; first compound 0.01581 µM): 0.369
- relative viability ([9]; first compound 0.05 µM): 0.536
- relative viability ([9]; first compound 0.1581 µM): 0.526
- relative viability ([9]; first compound 0.5 µM): 0.464
- relative viability ([10]; first compound 0.005 µM): 0.667
- relative viability ([10]; first compound 0.01581 µM): 0.627
- relative viability ([10]; first compound 0.05 µM): 0.714
- relative viability ([10]; first compound 0.1581 µM): 0.655
- relative viability ([10]; first compound 0.5 µM): 0.563
- relative viability ([11]; first compound 0.005 µM): 0.523
- relative viability ([11]; first compound 0.01581 µM): 0.599
- relative viability ([11]; first compound 0.05 µM): 0.441
- relative viability ([11]; first compound 0.1581 µM): 0.453
- relative viability ([11]; first compound 0.5 µM): 0.527
- relative viability ([12]; first compound 0.005 µM): 0.455
- relative viability ([12]; first compound 0.01581 µM): 0.544
- relative viability ([12]; first compound 0.05 µM): 0.546
- relative viability ([12]; first compound 0.1581 µM): 0.507
- relative viability ([12]; first compound 0.5 µM): 0.343
- relative viability ([13]; first compound 0.005 µM): 0.846
- relative viability ([13]; first compound 0.01581 µM): 0.892
- relative viability ([13]; first compound 0.05 µM): 0.935
- relative viability ([13]; first compound 0.1581 µM): 0.898
- relative viability ([13]; first compound 0.5 µM): 0.876
- relative viability ([14]; first compound 0.005 µM): 0.273
- relative viability ([14]; first compound 0.01581 µM): 0.354
- relative viability ([14]; first compound 0.05 µM): 0.312
- relative viability ([14]; first compound 0.1581 µM): 0.347
- relative viability ([14]; first compound 0.5 µM): 0.308
- relative viability ([15]; first compound 0.005 µM): 0.253
- relative viability ([15]; first compound 0.01581 µM): 0.259
- relative viability ([15]; first compound 0.1581 µM): 0.201
- relative viability ([15]; first compound 0.5 µM): 0.194
- relative viability ([16]; first compound 0.005 µM): 0.254
- relative viability ([16]; first compound 0.01581 µM): 0.246
- relative viability ([16]; first compound 0.05 µM): 0.241
- relative viability ([16]; first compound 0.1581 µM): 0.259
- relative viability ([16]; first compound 0.5 µM): 0.206
- relative viability ([17]; first compound 0.005 µM): 0.703
- relative viability ([17]; first compound 0.01581 µM): 0.738
- relative viability ([17]; first compound 0.05 µM): 0.757
- relative viability ([17]; first compound 0.1581 µM): 0.787
- relative viability ([17]; first compound 0.5 µM): 0.81
- relative viability ([18]; first compound 0.005 µM): 0.338
- relative viability ([18]; first compound 0.01581 µM): 0.394
- relative viability ([18]; first compound 0.1581 µM): 0.278
- relative viability ([18]; first compound 0.5 µM): 0.275
- relative viability ([19]; first compound 0.005 µM): 0.392
- relative viability ([19]; first compound 0.01581 µM): 0.327
- relative viability ([19]; first compound 0.05 µM): 0.37
- relative viability ([19]; first compound 0.1581 µM): 0.382
- relative viability ([19]; first compound 0.5 µM): 0.397
- relative viability ([20]; first compound 0.005 µM): 0.245
- relative viability ([20]; first compound 0.01581 µM): 0.236
- relative viability ([20]; first compound 0.1581 µM): 0.197
- relative viability ([20]; first compound 0.5 µM): 0.294
- relative viability ([21]; first compound 0.005 µM): 0.761
- relative viability ([21]; first compound 0.01581 µM): 0.787
- relative viability ([21]; first compound 0.05 µM): 0.735
- relative viability ([21]; first compound 0.1581 µM): 0.731
- relative viability ([21]; first compound 0.5 µM): 0.681
- relative viability ([22]; first compound 0.005 µM): 0.196
- relative viability ([22]; first compound 0.01581 µM): 0.184
- relative viability ([22]; first compound 0.05 µM): 0.207
- relative viability ([22]; first compound 0.1581 µM): 0.2
- relative viability ([22]; first compound 0.5 µM): 0.188
- relative viability ([23]; first compound 0.005 µM): 0.353
- relative viability ([23]; first compound 0.01581 µM): 0.286
- relative viability ([23]; first compound 0.05 µM): 0.481
- relative viability ([23]; first compound 0.1581 µM): 0.306
- relative viability ([23]; first compound 0.5 µM): 0.373
